This passage reports IC50 results from US10821115B2, “Compounds that inhibit Mcl-1 protein” (priority 2017, dated 2020).

Read-outs that look alike come from different tables or passages of the source.

Experiment [1] concerns the target recombinant human Mcl-1 (residues 171-327) / Bim interaction (Homo sapiens (Human), UniProt Q07820). Briefly: biochemical. The experiment is classed as binding. The note with it: read-out: Mcl-1 HTRF IC50. (TR-FRET usually uses a lanthanide donor and a delayed reading to cut background.)
Experiment [2] relates to human multiple myeloma cell line, OPM-2. Briefly: Cell viability assay (OPM-2 10 FBS), CellTiter-Glo. The experiment is classed as cell-based. Summed up:
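Serially diluted test compounds are incubated 16 h with cells (3000/well) in RPMI 1640 supplemented with 10% FBS. Viability is then measured by luminescence and IC50 calculated by 4-parameter logistic fit.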

Setting [3] is: TR-FRET, Mcl-1(171-327) / biotin-Bim (51-76).
The mark [4] stands for this setting: Homo sapiens, OPM-2, 16 h, read-out: OPM-2 10% FBS IC50 IP, OPM-2 cells, 10% FBS, 16 h, CellTiter-Glo.
The mark [5] stands for this setting: read-out: OPM-2 10% FBS IC50 IP, OPM-2 cells, 10% FBS, 16 h, CellTiter-Glo.

Chain of recombinant human Mcl-1 (residues 171-327) / Bim interaction (Q07820 171-327): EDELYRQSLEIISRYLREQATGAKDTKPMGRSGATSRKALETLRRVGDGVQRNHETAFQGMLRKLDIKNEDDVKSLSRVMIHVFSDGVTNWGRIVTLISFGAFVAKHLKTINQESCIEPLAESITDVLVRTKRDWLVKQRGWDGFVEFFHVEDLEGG

As usually defined, the IC50 is the concentration at which inhibition is half-maximal. On to `C[C@@H]1[C@@H](C)C/C=C/[C@@](CO)(OCC(F)(F)F)[C@@H]2CC[C@H]2CN2C[C@@]3(CCCc4cc(Cl)ccc43)COc3ccc(cc32)C(=O)NS1(=O)=O` (single isomer, unassigned) [Example 100604], for which the IC50 came to 0.723 nM in experiment [1] (setting [3]) and 4110 nM in experiment [2] (setting [4]).

Take `C[C@@H]1[C@@H](C)CCC[C@@]2(C[C@H](C)C(=O)O2)[C@@H]2CC[C@H]2CN2C[C@@]3(CCCc4cc(Cl)ccc43)COc3ccc(cc32)C(=O)NS1(=O)=O` (stereo in doubt) [Example 100129]: the values for the IC50 in experiment [1] (setting [3]) and in experiment [2] (setting [4]) were 2.4 nM and 4870 nM, respectively.

Take `CO[C@@H](C[C@]1(OC)/C=C/C[C@H](C)[C@@H](C)S(=O)(=O)NC(=O)c2ccc3c(c2)N(C[C@@H]2CC[C@H]21)C[C@@]1(CCCc2cc(Cl)ccc21)CO3)C1CC1` [Example 100463, (1S,3′R,6′R,7′S,8′E,11′S,12′R)-6-chloro-7′-((2S)-2-cyclopropyl-2-methoxyethyl)-7′-methoxy-11′,12′-dimethyl-3,4-dihydro-2H,15′H-spiro[naphthalene-1,22′-[20]oxa[13]thia[1,14]diazatetracyclo [14.7.2.0~3,6~.0~19,24~]pentacosa[8,16,18,24]tetraen]-15′-one 13′,13′-dioxide]: the IC50 came out at 0.383 nM in experiment [1] (setting [3]) and 1130 nM in experiment [2] (setting [5]).

As to `C[C@@H]1[C@@H](C)C/C=C/[C@@](O)(C#CCN(C)C)[C@@H]2CC[C@H]2CN2C[C@@]3(CCCc4cc(Cl)ccc43)COc3ccc(cc32)C(=O)NS1(=O)=O` [Example 100294, (1S,3′R,6′R,7′S,8′E,11′S,12′R)-6-chloro-7′-(3-(dimethylamino)-1-propyn-1-yl)-7′-hydroxy-11′,12′-dimethyl-3,4-dihydro-2H,15′H-spiro[naphthalene-1,22′-[20]oxa[13]thia[1,14]diazatetracyclo [14.7.2.0~3,6~.0~19,24~]pentacosa[8,16,18,24]tetraen]-15′-one 13′,13′-dioxide], the IC50 stood at 0.118 nM in experiment [1] (setting [3]) and 116 nM in experiment [2] (setting [5]).

Consider `C[C@@H]1[C@@H](C)C/C=C/[C@@](O)(c2ncnn2C)C2CC[C@H]2CN2C[C@@]3(CCCc4cc(Cl)ccc43)COc3ccc(cc32)C(=O)NS1(=O)=O` (stereo in doubt) [Example 100222, (1S,3′R,6′S,7′S,8′E,11′S,12′R)-6-chloro-7′-hydroxy-11′,12′-dimethyl-7′-(1-methyl-1H-1,2,4-triazol-5-yl)-3,4-dihydro-2H,15′H-spiro[naphthalene-1,22′-[20]oxa[13]thia[1,14]diazatetracyclo [14.7.2.0~3,6~.0~19,24~]pentacosa[8,16,18,24]tetraen]-15′-one 13′,13′-dioxide], for which the IC50 in experiment [1] (setting [3]) is 0.182 nM; in experiment [2] (setting [4]), 222 nM.

Turning to `C[C@@H]1[C@@H](C)C/C=C/[C@@](CN2CCN3CCOC[C@@H]3C2)(OCC(F)(F)F)[C@@H]2CC[C@H]2CN2C[C@@]3(CCCc4cc(Cl)ccc43)COc3ccc(cc32)C(=O)NS1(=O)=O` [Example 50, (1S,3′R,6′R,7′R,8′E,11′S,12′R)-6-chloro-7′-((9aS)-hexahydropyrazino[2,1-c][1,4]oxazin-8(1H)-ylmethyl)-11′,12′-dimethyl-7′-(2,2,2-trifluoroethoxy)-3,4-dihydro-2H,15′H-spiro[naphthalene-1,22′-[20]oxa[13]thia[1,14]diazatetracyclo [14.7.2.0~3,6~.0~19,24~]pentacosa[8,16,18,24]tetraen]-15′-one 13′,13′-dioxide], the IC50 in experiment [1] (0.1 nM Mcl-1(171-327), 0.05 nM biotin-Bim (51-76)) was 0.736 nM; in experiment [2] (Homo sapiens, OPM-2, 16 h, read-out: OPM-2 10% FBS IC50 IP, OPM-2 cells, 10% FBS, 16 h incubation) it was 1530 nM.
